# Patent publication US11891634B2, “PDE5A destabilizing domains” (The Board of Trustees of the Leland Stanford Junior …, priority 2017, dated 2024)
# Assays:
# Type in all cases: cell-based, human
# [1] = system: HCT 116 cells transduced with the PDE5A DD derived GFP constructs; assay: Response to Vardenafil, GFP expression by FACS in HCT116; details: for MFI / Stabilization ratio with Vardenafil: 48 hours, HCT116; for Basal: Table 15, MFI with DMSO / parental HCT116, Vardenafil experiment
# Procedure, shortened: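 HCT116 cells stably carrying lentiviral AcGFP fusions of PDE5A (535-860) mutants, sorted on mCherry, got DMSO or Vardenafil (10 μM, or 0.002–30 μM) for 48 h, and GFP MFI was read by flow cytometry. Basal expression is untreated GFP over parental autofluorescence; the stabilization ratio is treated over untreated MFI.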
# [2] = system: HCT 116 cells transduced with the PDE5A DD derived GFP constructs; assay: Response to Tadalafil, GFP expression by FACS in HCT116; details: for MFI / Stabilization ratio with Tadalafil: 48 hours, HCT116
# Procedure, shortened: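 HCT116 cells stably transduced (mCherry-sorted) with lentiviral PDE5A DD–AcGFP constructs, exposed to DMSO or Tadalafil 0.01–100 μM for 48 hrs. GFP mean fluorescence by FACS; stabilization ratio = ligand vs no-ligand signal, basal expression = no-ligand signal vs parental autofluorescence.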
# [3] = system: HCT116 cells transduced with the constructs; assay: Response to Sildenafil, GFP expression by flow cytometry in HCT116; details: for MFI / Stabilization ratio with Sildenafil: 48 hours, HCT116
# Procedure, shortened: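 HCT116 cells stably expressing AcGFP-fused destabilizing domains from a lentiviral mCherry-marked vector (sorted on mCherry) were exposed to sildenafil at 0.01–100 μM for 48 hours. GFP mean fluorescence intensity was measured by flow cytometry.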
substance,measurement,setting,value
"PDE5AC (#43): AcGFP fused to C-terminal DD 535-860 of PDE5A (Q589R, N609H, Y676N, A762S), SEQ ID NO. 29",MFI,[1]; DMSO (no Vardenafil),12047
same,Basal (DMSO/Parental),"[1]; Table 10, GFP signal without ligand / auto fluorescence of parental HCT-116",8.7
same,Basal,[1],6.17
same,Stabilization ratio with Vardenafil,[1]; Vardenafil 0.002 μM vs DMSO,1.1
same,MFI,[1]; Vardenafil 0.002 μM,13329
same,MFI,[1]; Vardenafil 0.005 μM,17702
same,Stabilization ratio with Vardenafil,[1]; Vardenafil 0.014 μM vs DMSO,2.8
same,MFI,[1]; Vardenafil 0.014 μM,33483
same,Stabilization ratio with Vardenafil,[1]; Vardenafil 0.041 μM vs DMSO,4.6
same,MFI,[1]; Vardenafil 0.041 μM,55300
same,Stabilization ratio with Vardenafil,[1]; Vardenafil 0.123 μM vs DMSO,5.8
same,MFI,[1]; Vardenafil 0.123 μM,70385
same,Stabilization ratio with Vardenafil,[1]; Vardenafil 0.370 μM vs DMSO,6.5
same,MFI,[1]; Vardenafil 0.370 μM,78215
same,Stabilization ratio with Vardenafil,[1]; Vardenafil 1.111 μM vs DMSO,6.9
same,MFI,[1]; Vardenafil 1.111 μM,83052
same,Stabilization ratio with Vardenafil,[1]; Vardenafil 3.333 μM vs DMSO,7.4
same,MFI,[1]; Vardenafil 3.333 μM,88707
same,Stabilization ratio with Vardenafil,[1]; Vardenafil 10 μM vs DMSO,7.1
same,MFI,[1]; Vardenafil 10 μM,85867
same,Stabilization ratio with Vardenafil,[1]; Vardenafil 30 μM vs DMSO,7.2
same,MFI,[1]; Vardenafil 30 μM,86318
same,MFI,[2]; DMSO (no Tadalafil),10998
same,Basal expression,"[2]; Table 21, MFI with DMSO / parental HCT116, Tadalafil experiment",8.59
same,Stabilization ratio with Tadalafil,[2]; Tadalafil 0.01 μM vs DMSO,1.0
same,MFI,[2]; Tadalafil 0.01 μM,11444
same,Stabilization ratio with Tadalafil,[2]; Tadalafil 0.02 μM vs DMSO,1.0
same,MFI,[2]; Tadalafil 0.02 μM,11479
same,Stabilization ratio with Tadalafil,[2]; Tadalafil 0.05 μM vs DMSO,1.1
same,MFI,[2]; Tadalafil 0.05 μM,11764
same,Stabilization ratio with Tadalafil,[2]; Tadalafil 0.14 μM vs DMSO,1.2
same,MFI,[2]; Tadalafil 0.14 μM,13429
same,Stabilization ratio with Tadalafil,[2]; Tadalafil 0.41 μM vs DMSO,1.7
same,MFI,[2]; Tadalafil 0.41 μM,18940
same,Stabilization ratio with Tadalafil,[2]; Tadalafil 1.23 μM vs DMSO,2.9
same,MFI,[2]; Tadalafil 1.23 μM,32204
same,Stabilization ratio with Tadalafil,[2]; Tadalafil 3.7 μM vs DMSO,4.5
same,MFI,[2]; Tadalafil 3.7 μM,49646
same,Stabilization ratio with Tadalafil,[2]; Tadalafil 11.11 μM vs DMSO,5.8
same,MFI,[2]; Tadalafil 11.11 μM,64186
same,Stabilization ratio with Tadalafil,[2]; Tadalafil 33.33 μM vs DMSO,6.8
same,MFI,[2]; Tadalafil 33.33 μM,74446
same,Stabilization ratio with Tadalafil,[2]; Tadalafil 100 μM vs DMSO,6.9
same,MFI,[2]; Tadalafil 100 μM,76281
same,MFI,[3]; DMSO (no Sildenafil),11147
same,Stabilization ratio with Sildenafil,[3]; Sildenafil 0.01 μM vs DMSO,1.1
same,MFI,[3]; Sildenafil 0.01 μM,11962
same,Stabilization ratio with Sildenafil,[3]; Sildenafil 0.02 μM vs DMSO,1.1
same,MFI,[3]; Sildenafil 0.02 μM,11940
same,Stabilization ratio with Sildenafil,[3]; Sildenafil 0.05 μM vs DMSO,1.4
same,MFI,[3]; Sildenafil 0.05 μM,15203
same,MFI,[3]; Sildenafil 0.14 μM,24319
same,Stabilization ratio with Sildenafil,[3]; Sildenafil 0.41 μM vs DMSO,3.6
same,MFI,[3]; Sildenafil 0.41 μM,40470
same,Stabilization ratio with Sildenafil,[3]; Sildenafil 1.23 μM vs DMSO,5.2
same,MFI,[3]; Sildenafil 1.23 μM,57723
same,Stabilization ratio with Sildenafil,[3]; Sildenafil 3.70 μM vs DMSO,6.6
same,MFI,[3]; Sildenafil 3.70 μM,73400
same,Stabilization ratio with Sildenafil,[3]; Sildenafil 11.11 μM vs DMSO,6.9
same,MFI,[3]; Sildenafil 11.11 μM,76900
same,Stabilization ratio with Sildenafil,[3]; Sildenafil 33.33 μM vs DMSO,8.5
same,MFI,[3]; Sildenafil 33.33 μM,94863
same,Stabilization ratio with Sildenafil,[3]; Sildenafil 100.00 μM vs DMSO,5.1
same,MFI,[3]; Sildenafil 100.00 μM,56552
same,Basal expression,"[3]; Table 26, MFI with DMSO / parental HCT116, Sildenafil experiment",8.7
"PDE5AC (#69): AcGFP fused to C-terminal DD 535-860 of PDE5A (Q589R, N636S, D687A, D764N, S815C), SEQ ID NO. 30",MFI,[1]; DMSO (no Vardenafil),9466
same,Basal,[1],4.84
same,Stabilization ratio with Vardenafil,[1]; Vardenafil 0.002 μM vs DMSO,1.1
same,MFI,[1]; Vardenafil 0.002 μM,10817
same,MFI,[1]; Vardenafil 0.005 μM,13682
same,Stabilization ratio with Vardenafil,[1]; Vardenafil 0.014 μM vs DMSO,2.9
same,MFI,[1]; Vardenafil 0.014 μM,27457
same,Stabilization ratio with Vardenafil,[1]; Vardenafil 0.041 μM vs DMSO,3.4
same,MFI,[1]; Vardenafil 0.041 μM,32264
same,Stabilization ratio with Vardenafil,[1]; Vardenafil 0.123 μM vs DMSO,5.3
same,MFI,[1]; Vardenafil 0.123 μM,49884
same,Stabilization ratio with Vardenafil,[1]; Vardenafil 0.370 μM vs DMSO,7.9
same,MFI,[1]; Vardenafil 0.370 μM,74730
same,Stabilization ratio with Vardenafil,[1]; Vardenafil 1.111 μM vs DMSO,6.6
same,MFI,[1]; Vardenafil 1.111 μM,62065
same,Stabilization ratio with Vardenafil,[1]; Vardenafil 3.333 μM vs DMSO,7.0
same,MFI,[1]; Vardenafil 3.333 μM,66625
same,Stabilization ratio with Vardenafil,[1]; Vardenafil 10 μM vs DMSO,6.8
same,MFI,[1]; Vardenafil 10 μM,64380
same,Stabilization ratio with Vardenafil,[1]; Vardenafil 30 μM vs DMSO,2.4
same,MFI,[1]; Vardenafil 30 μM,22775
same,MFI,[2]; DMSO (no Tadalafil),8822
same,Stabilization ratio with Tadalafil,[2]; Tadalafil 0.01 μM vs DMSO,1.1
same,MFI,[2]; Tadalafil 0.01 μM,9337
same,Stabilization ratio with Tadalafil,[2]; Tadalafil 0.02 μM vs DMSO,1.2
same,MFI,[2]; Tadalafil 0.02 μM,10353
same,Stabilization ratio with Tadalafil,[2]; Tadalafil 0.05 μM vs DMSO,1.4
same,MFI,[2]; Tadalafil 0.05 μM,12365
same,MFI,[2]; Tadalafil 0.14 μM,19039
same,Stabilization ratio with Tadalafil,[2]; Tadalafil 0.41 μM vs DMSO,3.7
same,MFI,[2]; Tadalafil 0.41 μM,32821
same,Stabilization ratio with Tadalafil,[2]; Tadalafil 1.23 μM vs DMSO,5.9
same,MFI,[2]; Tadalafil 1.23 μM,52033
same,Stabilization ratio with Tadalafil,[2]; Tadalafil 3.7 μM vs DMSO,7.1
same,MFI,[2]; Tadalafil 3.7 μM,62558
same,Stabilization ratio with Tadalafil,[2]; Tadalafil 11.11 μM vs DMSO,7.9
same,MFI,[2]; Tadalafil 11.11 μM,69440
same,Stabilization ratio with Tadalafil,[2]; Tadalafil 33.33 μM vs DMSO,7.7
same,MFI,[2]; Tadalafil 33.33 μM,68289
same,MFI,[2]; Tadalafil 100 μM,67259
same,MFI,[3]; DMSO (no Sildenafil),9575
same,Stabilization ratio with Sildenafil,[3]; Sildenafil 0.01 μM vs DMSO,1.0
same,MFI,[3]; Sildenafil 0.01 μM,9574
same,Stabilization ratio with Sildenafil,[3]; Sildenafil 0.02 μM vs DMSO,1.2
same,MFI,[3]; Sildenafil 0.02 μM,11755
same,Stabilization ratio with Sildenafil,[3]; Sildenafil 0.05 μM vs DMSO,1.2
same,MFI,[3]; Sildenafil 0.05 μM,11944
same,MFI,[3]; Sildenafil 0.14 μM,19733
same,Stabilization ratio with Sildenafil,[3]; Sildenafil 0.41 μM vs DMSO,3.1
same,MFI,[3]; Sildenafil 0.41 μM,30090
same,Stabilization ratio with Sildenafil,[3]; Sildenafil 1.23 μM vs DMSO,4.6
same,MFI,[3]; Sildenafil 1.23 μM,44180
same,Stabilization ratio with Sildenafil,[3]; Sildenafil 3.70 μM vs DMSO,5.5
same,MFI,[3]; Sildenafil 3.70 μM,52782
same,Stabilization ratio with Sildenafil,[3]; Sildenafil 11.11 μM vs DMSO,6.2
same,MFI,[3]; Sildenafil 11.11 μM,59723
same,Stabilization ratio with Sildenafil,[3]; Sildenafil 33.33 μM vs DMSO,6.8
same,MFI,[3]; Sildenafil 33.33 μM,65183
same,Stabilization ratio with Sildenafil,[3]; Sildenafil 100.00 μM vs DMSO,5.4
same,MFI,[3]; Sildenafil 100.00 μM,51774
